{"source": "patent US8399482B2", "about": "“6-substituted isoquinolines and isoquinolinones” (Sanofi, priority 2008, dated 2013)", "format_in_all_cases": "biochemical", "key": {"[1]": {"target": "T1, human recombinant ROCK II (Homo sapiens, UniProt O75116)", "T1 construct": "recombinant human ROCK-II residues 11-552; His6 (N); purchased Millipore GmbH, Schwalbach, Germany", "T1 sequence (O75116 11-552)": "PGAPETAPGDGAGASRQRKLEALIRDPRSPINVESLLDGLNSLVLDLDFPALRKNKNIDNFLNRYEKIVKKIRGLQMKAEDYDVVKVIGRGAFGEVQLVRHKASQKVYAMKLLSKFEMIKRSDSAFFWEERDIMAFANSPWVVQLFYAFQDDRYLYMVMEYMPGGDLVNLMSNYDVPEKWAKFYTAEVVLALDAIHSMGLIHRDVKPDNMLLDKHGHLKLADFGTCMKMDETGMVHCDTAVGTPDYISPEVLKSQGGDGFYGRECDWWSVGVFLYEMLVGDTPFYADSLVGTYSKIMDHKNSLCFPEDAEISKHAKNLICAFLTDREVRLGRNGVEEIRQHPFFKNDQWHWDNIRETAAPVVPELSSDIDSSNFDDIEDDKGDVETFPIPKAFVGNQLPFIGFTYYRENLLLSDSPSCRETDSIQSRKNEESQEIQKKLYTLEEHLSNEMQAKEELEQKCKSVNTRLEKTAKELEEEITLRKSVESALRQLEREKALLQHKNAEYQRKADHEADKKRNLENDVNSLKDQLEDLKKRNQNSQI", "test": "Determination of Rho kinase inhibition (ROCK II, Caliper peptide phosphorylation assay)", "conditions": "respective form (salt or free base) as obtained in the examples, 60 min at 32° C.", "description": "To measure Rho-kinase inhibition, IC50 values were determined according to the following protocol:\nActive human recombinant ROCK II (N-terminal His6-tagged recombinant human ROCK-II residues 11-552) was purchased from Millipore GmbH, Schwalbach, Germany. The peptide substrate, Fluorescein-[…]-COOH, was obtained from JPT Peptide Technologies, Berlin, Germany. Adenosine-5′-triphosphate (ATP), bovine serum albumine (BSA), dimethylsulphoxide (DMSO), 4-(2-hydroxyethyl)piperazine-1-ethanesulfonic acid (Hepes), Brij-35, dithiothreitol (DTT) and Pluronic F-68 were purchased from Sigma-Aldrich, Munich, Germany. Tris(hydroxymethyl)-aminomethane (Tris), magnesium chloride, NaOH, 1M HCl and EDTA were obtained from Merck Biosciences, Darmstadt, Germany. “Complete” protease inhibitor was from Roche Diagnostics, Mannheim, Germany. Test compounds were diluted to the appropriate concentrations in buffer 1 (25 mM Tris-HCl, pH 7.4, 5 mM MgCl2, 2 mM DTT, 0.02% (w/v) BSA, 0.01% Pluronic F-68 and 3% DMSO). The ROCK II enzyme was diluted to a concentration of 100 ng/mL in buffer 2 (25 mM Tris-HCl, pH 7.4, 5 mM MgCl2, 2 mM DTT and 0.02% (w/v) BSA). The peptide substrate and ATP were diluted to concentrations of 3 μM and 120 μM, respectively, in the buffer 2. Two μl of the compound solution were mixed with 2 μl of the diluted enzyme in a 384-well small volume microtiter plate (Greiner, Bio-One, Frickenhausen, Germany), and the kinase reaction was initiated by addition of 2 μl of the solution containing peptide substrate and ATP. After 60 min incubation at 32° C., the reaction was stopped by addition of 20 μl of a solution containing 100 mM Hepes-NaOH, pH 7.4, 0.015% (v/v) Brij-35, 45 mM EDTA and 0.227% chip coating reagent 1 (Caliper Lifescience Inc, Hopkinton, Mass.). Phosphorylation of the substrate peptide was then detected on a Caliper 3000 instrument essentially as described by Pommereau et al (J. Biomol. Screening 2004, 9(5), 409-416). Separation conditions were as follows: Pressure −1.3 psi, upstream voltage −1562 V, downstream voltage −500 V, sample sip time 200 ms. Positive controls (buffer 1 instead of compound) and negative controls (buffer 1 instead of compound and buffer 2 instead of ROCK II) were run in parallel on each plate.\nThe following products/compounds were tested in said assay by using the respective form (salt or free base) obtained as in the examples described above and the following activities were measured"}, "[2]": {"target": "T2, recombinant human PKA (Homo sapiens, UniProt P17612)", "T2 construct": "recombinant human PKA (residues 1-351, N-terminal His-tag); His-tag (N); purchased Invitrogen, Karlsruhe, Germany", "test": "Determination of Protein Kinase A inhibition (selectivity)", "conditions": "from IC50 values", "description": "(§1) 2) Determination of Protein Kinase a and Protein Kinase G Inhibition\n(§2) To measure PKA and PKG1-beta inhibition, IC50 values were determined according to the following protocol:\n(§3) Active recombinant human PKG1-beta (full-length, with N-terminal His-tag) was purchased from Millipore GmbH, Schwalbach, Germany. Active recombinant human PKA (residues 1-351, N-terminal His-tag) was obtained from Invitrogen, Karlsruhe, Germany. The peptide substrate, Fluorescein-[…]-COOH, was obtained from JPT Peptide Technologies, Berlin, Germany. Adenosine-5′-triphosphate (ATP), bovine serum albumine (BSA), dimethylsulphoxide (DMSO), 4-(2-Hydroxyethyl)piperazine-1-ethanesulfonic acid (Hepes), Brij-35, dithiothreitol (DTT) and Pluronic F-68 were purchased from Sigma-Aldrich, Munich, Germany. Tris(hydroxymethyl)-aminomethane (Tris), magnesium chloride, NaOH, 1M HCl and EDTA were obtained from Merck Biosciences, Darmstadt, Germany. “Complete” protease inhibitor was from Roche Diagnostics, Mannheim, Germany. Test compounds were diluted to the appropriate concentrations in buffer 1 (25 mM Tris-HCl, pH 7.4, 5 mM MgCl2, 2 mM DTT, 0.02% (w/v) BSA, 0.01% Pluronic F-68 and 3% DMSO). PKG1-beta and PKA were diluted to concentrations of 150 ng/ml and 30 ng/ml, respectively, in buffer 2. The peptide substrate and ATP were diluted to concentrations of 3 μM and 120 μM, respectively, in the buffer 2. Two μl of the compound solution were mixed with 2 μl of the diluted enzyme in a 384-well small volume microtiter plate (Greiner, Bio-One, Frickenhausen, Germany), and the kinase reaction was initiated by addition of 2 μl of the solution containing peptide substrate and ATP. After 60 min incubation at 32° C., the reaction was stopped by addition of 20 μl of a solution containing 100 mM Hepes-NaOH, pH 7.4, 0.015% (v/v) Brij-35, 45 mM EDTA and 0.227% chip coating reagent 1 (Caliper Lifescience Inc, Hopkinton, Mass.). Phosphorylation of the substrate peptide was then detected on a Caliper 3000 instrument essentially as described by Pommereau et al (J. Biomol. Screening 9(5), 409-416, 2004). Separation conditions were as follows: Pressure −1.3 psi, upstream voltage −1562 V, downstream voltage −500 V, sample sip time 200 ms, Positive controls (buffer 1 instead of compound) and negative controls (buffer 1 instead of compound and buffer 2 instead of kinase solution) were run in parallel on each plate. The following products/compounds were tested in said assay by using the respective form (salt or free base) obtained as in the examples described above and the following activities were measured."}, "[3]": {"target": "T3, recombinant human PKG1-beta (Homo sapiens, UniProt Q13976)", "T3 construct": "PKG1-beta (full-length, with N-terminal His-tag); His-tag (N); purchased Millipore GmbH, Schwalbach, Germany", "T3 sequence (Q13976 1-686 isoform Q13976-2)": "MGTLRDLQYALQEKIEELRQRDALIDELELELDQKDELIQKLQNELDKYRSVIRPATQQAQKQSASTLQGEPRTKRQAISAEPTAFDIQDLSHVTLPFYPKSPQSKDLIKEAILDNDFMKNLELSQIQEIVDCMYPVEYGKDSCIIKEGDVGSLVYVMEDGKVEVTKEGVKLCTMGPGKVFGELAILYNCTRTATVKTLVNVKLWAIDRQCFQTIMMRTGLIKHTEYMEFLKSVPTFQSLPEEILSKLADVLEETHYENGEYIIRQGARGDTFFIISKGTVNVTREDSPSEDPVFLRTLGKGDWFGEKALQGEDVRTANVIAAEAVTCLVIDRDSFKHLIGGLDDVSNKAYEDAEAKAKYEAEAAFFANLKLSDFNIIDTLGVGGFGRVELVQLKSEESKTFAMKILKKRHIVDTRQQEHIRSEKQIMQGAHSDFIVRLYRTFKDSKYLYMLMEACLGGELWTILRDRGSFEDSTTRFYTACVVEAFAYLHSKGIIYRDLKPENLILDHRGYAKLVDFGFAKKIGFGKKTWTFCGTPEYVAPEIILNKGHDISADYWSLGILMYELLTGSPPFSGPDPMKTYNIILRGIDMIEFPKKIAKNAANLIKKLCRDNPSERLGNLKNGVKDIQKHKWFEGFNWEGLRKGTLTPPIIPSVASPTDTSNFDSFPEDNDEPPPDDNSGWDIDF", "test": "Determination of Protein Kinase G inhibition (selectivity)", "conditions": "from IC50 values", "description": "as §1, §2, §3"}}, "data": [{"smiles": "CCC(N)[C@]1(C2CCOCC2)CC[C@H](Oc2cc3cc[nH]c(=O)c3cc2Cl)CC1", "note": "(mixture of isomers) [Example 1, cis-6-[4-(1-Aminopropyl)-4-(tetrahydropyran-4-yl)-cyclohexyloxy]-7-chloro-2H-isoquinolin-1-one]", "values": [{"measurement": "IC50", "setting": "[1]", "result": "≤ 10", "unit": "nM"}, {"measurement": "Selectivity against PKA", "setting": "[2]", "result": ">1000", "unit": "fold"}, {"measurement": "Selectivity against PKG", "setting": "[3]", "result": ">300", "unit": "fold"}]}, {"smiles": "CCC(N)[C@]1(C2CCOCC2)CC[C@H](Oc2cc3cc[nH]c(=O)c3cc2Cl)CC1", "note": "(single isomer, unassigned) [Example 2, 6-[4-(1-Aminopropyl)-4-(tetrahydropyran-4-yl)-cyclohexyloxy]-7-chloro-2H-isoquinolin-1-one]", "values": [{"measurement": "IC50", "setting": "[1]", "result": "100 to 1000", "unit": "nM"}, {"measurement": "Selectivity against PKA", "setting": "[2]", "result": ">10", "unit": "fold"}, {"measurement": "Selectivity against PKG", "setting": "[3]", "result": ">1", "unit": "fold"}]}, {"smiles": "CCC1(C(C)N)CCC(Oc2cc3cc[nH]c(=O)c3cc2Cl)CC1", "note": "(single isomer, unassigned) [Example 3, 6-[4-(1-Amino-ethyl)-4-ethyl-cyclohexyloxy]-7-chloro-2H-isoquinolin-1-one]", "values": [{"measurement": "IC50", "setting": "[1]", "result": "≤ 10", "unit": "nM"}, {"measurement": "Selectivity against PKA", "setting": "[2]", "result": ">1000", "unit": "fold"}, {"measurement": "Selectivity against PKG", "setting": "[3]", "result": ">1000", "unit": "fold"}]}, {"smiles": "CCC1(C(C)N)CCC(Oc2cc3cc[nH]c(=O)c3cc2Cl)CC1", "note": "(single isomer, unassigned) [Example 4, 6-[4-(1-Amino-ethyl)-4-ethyl-cyclohexyloxy]-7-chloro-2H-isoquinolin-1-one]", "values": [{"measurement": "IC50", "setting": "[1]", "result": "10 to 100", "unit": "nM"}, {"measurement": "Selectivity against PKA", "setting": "[2]", "result": ">300", "unit": "fold"}, {"measurement": "Selectivity against PKG", "setting": "[3]", "result": ">100", "unit": "fold"}]}, {"smiles": "CCCC1(C(N)CC)CCC(Oc2cc3cc[nH]c(=O)c3cc2Cl)CC1", "note": "(single isomer, unassigned) [Example 5, 6-[4-(1-Amino-propyl)-4-propyl-cyclohexyloxy]-7-chloro-2H-isoquinolin-1-one]", "values": [{"measurement": "IC50", "setting": "[1]", "result": "≤ 10", "unit": "nM"}, {"measurement": "Selectivity against PKA", "setting": "[2]", "result": ">1000", "unit": "fold"}, {"measurement": "Selectivity against PKG", "setting": "[3]", "result": ">1000", "unit": "fold"}]}, {"smiles": "CCCC1(C(N)C2CC2)CCC(Oc2cc3cc[nH]c(=O)c3cc2Cl)CC1", "note": "(single isomer, unassigned) [Example 6, 6-[4-(Amino-cyclopropyl-methyl)-4-propyl-cyclohexyloxy]-7-chloro-2H-isoquinolin-1-one]", "values": [{"measurement": "IC50", "setting": "[1]", "result": "≤ 10", "unit": "nM"}, {"measurement": "Selectivity against PKA", "setting": "[2]", "result": ">1000", "unit": "fold"}, {"measurement": "Selectivity against PKG", "setting": "[3]", "result": ">1000", "unit": "fold"}]}, {"smiles": "CCCC1(C(N)C2CC2)CCC(Oc2cc3cc[nH]c(=O)c3cc2Cl)CC1", "note": "(single isomer, unassigned) [Example 7, 6-[4-(Amino-cyclopropyl-methyl)-4-propyl-cyclohexyloxy]-7-chloro-2H-isoquinolin-1-one]", "values": [{"measurement": "IC50", "setting": "[1]", "result": "10 to 100", "unit": "nM"}, {"measurement": "Selectivity against PKA", "setting": "[2]", "result": ">300", "unit": "fold"}, {"measurement": "Selectivity against PKG", "setting": "[3]", "result": ">100", "unit": "fold"}]}, {"smiles": "CCC(N)C1(C(C)C)CCC(Oc2cc3cc[nH]c(=O)c3cc2Cl)CC1", "note": "(single isomer, unassigned) [Example 8, 6-[4-(1-Amino-propyl)-4-isopropyl-cyclohexyloxy]-7-chloro-2H-isoquinolin-1-one]", "values": [{"measurement": "IC50", "setting": "[1]", "result": "≤ 10", "unit": "nM"}, {"measurement": "Selectivity against PKA", "setting": "[2]", "result": ">100", "unit": "fold"}, {"measurement": "Selectivity against PKG", "setting": "[3]", "result": ">100", "unit": "fold"}]}, {"smiles": "CCC(N)C1(C(C)C)CCC(Oc2cc3cc[nH]c(=O)c3cc2Cl)CC1", "note": "(single isomer, unassigned) [Example 9, 6-[4-(1-Amino-propyl)-4-isopropyl-cyclohexyloxy]-7-chloro-2H-isoquinolin-1-one]", "values": [{"measurement": "IC50", "setting": "[1]", "result": "10 to 100", "unit": "nM"}, {"measurement": "Selectivity against PKA", "setting": "[2]", "result": ">10", "unit": "fold"}, {"measurement": "Selectivity against PKG", "setting": "[3]", "result": ">10", "unit": "fold"}]}, {"smiles": "CC(N)C1(CC2CC2)CCC(Oc2cc3cc[nH]c(=O)c3cc2Cl)CC1", "note": "(single isomer, unassigned) [Example 10, 6-[4-(1-Amino-ethyl)-4-cyclopropylmethyl-cyclohexyloxy]-7-chloro-2H-isoquinolin-1-one]", "values": [{"measurement": "IC50", "setting": "[1]", "result": "≤ 10", "unit": "nM"}, {"measurement": "Selectivity against PKA", "setting": "[2]", "result": ">1000", "unit": "fold"}, {"measurement": "Selectivity against PKG", "setting": "[3]", "result": ">300", "unit": "fold"}]}, {"smiles": "CCC(N)C1(Cc2ccccc2)CCC(Oc2cc3cc[nH]c(=O)c3cc2Cl)CC1", "note": "(single isomer, unassigned) [Example 31, 6-[4-(1-Amino-propyl)-4-benzyl-cyclohexyloxy]-7-chloro-2H-isoquinolin-1-one]", "values": [{"measurement": "Selectivity against PKA", "setting": "[2]", "result": ">10", "unit": "fold"}, {"measurement": "Selectivity against PKG", "setting": "[3]", "result": ">100", "unit": "fold"}]}]}
